# Patent EP0591583B1, “Benzo (f) quinolinones as 5-alpha-reductase inhibitors” (ELI LILLY AND COMPANY, priority 1992, dated 1994)
# Target: T1, 5α-reductase (Homo sapiens, UniProt P18405)
# T1 construct: host or cells: Hs68 human genital skin fibroblasts
# T1 sequence (P18405 1-259): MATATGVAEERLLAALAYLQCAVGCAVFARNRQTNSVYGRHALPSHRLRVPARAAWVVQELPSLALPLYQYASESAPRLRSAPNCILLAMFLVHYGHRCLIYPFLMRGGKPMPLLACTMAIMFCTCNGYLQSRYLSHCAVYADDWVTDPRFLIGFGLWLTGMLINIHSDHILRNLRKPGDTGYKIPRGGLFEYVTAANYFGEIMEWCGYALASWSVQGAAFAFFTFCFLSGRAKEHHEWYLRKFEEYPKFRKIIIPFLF
# Assay: 5α-Reductase activity in Hs68 human genital skin fibroblasts (conversion of labeled testosterone, TLC analysis)
# Assay type: cell-based
# Details: Hs68
# Description: Cell Culture: 5α-Reductase activity was measured using Hs68 human genital skin fibroblasts which were originally purchased from the American Type Culture Collection (Rockville, MD). The cells were grown in Dulbecco's Modified Eagle's Medium (DMEM) plus 10% stripped fetal bovine serum which was supplemented with amphotericin B ([…]) and gentamicin ([…]) (GIBCO, Grand Island, NY). The serum was stripped of endogenous steroids by incubation with dextran-coated charcoal prior to its addition to the media. The cells were maintained at 37°C in an atmosphere of 95% air, 5% CO2 and were passaged every 7-10 days by exposure to a trypsin-EDTA solution (0.025% trypsin, 0.265 mM EDTA). Prior to the assay the Hs68 cells were harvested and plated in Falcon 6-well plates (Becton Dickinson Labware, Lincoln Park, NJ) at a density of 6 x 10^4 cells per well. The cells were allowed to grow for 4-5 days or until they reached approximately 80% confluence.
# Assay Method I: The substrate was prepared by dissolving unlabeled testosterone (Sigma Chemical Co., St. Louis, MO) in absolute ethanol followed by the addition of [7-^3H (N)]-testosterone (23.3 Ci/mmole, New England Nuclear, Boston, MA). The steroid solution was taken to dryness under a stream of nitrogen and then reconstituted in media.
# Assay Method II: The substrate used for this method was [^14C]-testosterone (50 mCi/mmol) (New England Nuclear, Boston, MA). An aliquot of the substrate was taken to dryness under a stream of nitrogen. After the addition of 30 µl of ethanol, the testosterone was dissolved in an appropriate volume of media.
# Sample Preparation: The test compounds were brought up in absolute ethanol in order to achieve the desired concentration. Subsequent dilutions of the test compounds with media were performed by the Biomek 1000 Automated Laboratory Workstation (Beckman Instruments, Palo Alto, CA). The existing media in the sample wells was aspirated and replaced with fresh media. Test compound was then added to the wells followed by the addition of 0.5 ml of substrate. The volume of the incubation mixture was maintained at 2.0 ml. The final substrate concentration was 12 µM. The concentration of the test compounds ranged from 0.001-150 µM. An additional three wells (background) containing media and substrate but no cells were also included to account for the non-enzymatic metabolism of the substrate. The plates were returned to the incubator and incubated for four hours.
# At the end of the incubation the media was collected and transferred to an extraction tube containing 5 ml of toluene-ethanol (9:1), to which has been added 20-250 µg each of unlabeled carrier steroids (estriol, estradiol, estrone, 5α-androstan-3α,17β-diol, 5α-androstan-3β,17β-diol, 4-androstene-3,17-dione, 5α-androstan-3,17-dione, testosterone, and 5α-dihydrotestosterone) (Steraloids, Inc., Wilton, NH). In the case of Assay Method I the extraction tube also contained 1,000 and 10,000 dpm of [4-^14C]-dihydrotestosterone (50-60 mCi/mmol) and [4-^14C]-testosterone (50 mCi/mmol) (New England Nuclear, Boston, MA), respectively. The [^14C]-steroids were included as recovery standards to quantify procedural losses. A small amount of NaCl was also added to the extraction tubes to prevent foaming. The samples were vortexed for approximately 30 seconds and then centrifuged for 10 minutes at 500 x g. The organic phase was collected and the samples taken to dryness, redissolved in dichloromethane-methanol (9:1) and were analyzed by thin layer chromatography using one of the methods described below.
# Chromatography Method I (two-dimensional): The extracted samples were appled to silica gel 60F254, 0.25 mm thick, thin layer chromatography plates (EM Science, Cincinnati, OH). The plates were developed in the first dimension with a solvent system containing dichloromethane-ethyl acetate-methanol-acetic acid (160:38:1.5:0.5, Mallinckrodt Inc., Paris, KY).
row,Structure (SMILES),inhibition at 1 µM
1,"CN1C(=O)CC[C@@H]2c3ccc(Cl)cc3CC[C@H]21 (racemic) [Example 6, trans-dl-8-chloro-4-methyl-1,2,3,4,4a,5,6,10b-octahydrobenzo[f]quinolin-3-one]",100%

# Same assay, conditions: Hs68, test compound 0.316 µM; Hs68 cells; substrate testosterone 12 µM; incubated four hours; read-out: % Inhibition
row,Structure (SMILES),inhibition at 0.316 µM
1,"CN1C(=O)CC[C@@H]2c3ccc(I)cc3CC[C@H]21 (racemic) [Example 3, trans-dl-8-iodo-4-methyl-1,2,3,4,4a,5,6,10b-octahydrobenzo[f]-quinolin-3-one]",100%
2,"O=C1CC[C@@H]2c3cc(Cl)c(Cl)cc3CC[C@H]2N1 (racemic) [Example 4, trans-dl-8,9-dichloro-1,2,3,4,4a,5,6,10b-octahydrobenzo[f]quinolin-3-one]",82.1%
3,"CCOC(=O)C=Cc1ccc2c(c1)CCC1C2CCC(=O)N1C (racemic) [Example 16, trans-dl-8-ethoxycarbonylethenediyl-4-methyl-1,2,3,4,4a,5,6,10b-octahydrobenzo[f]quinolin-3-one]",80%
4,"CCOC(=O)CCc1ccc2c(c1)CCC1C2CCC(=O)N1C (racemic) [Example 22, trans-dl-8-ethoxycarbonylethanediyl-4-methyl-1,2,3,4,4a,5,6,10b-octahydrobenzo[f]quinolin-3-one]",40.7%
5,"COC(=O)C=Cc1ccc2c(c1)CCC1C2CCC(=O)N1C (racemic) [Example 23, trans-dl-8-methoxycarbonylethenediyl-4-methyl-1,2,3,4,4a,5,6,10b-octahydrobenzo[f]quinolin-3-one]",76.5%
6,"CN1C(=O)CCC2c3ccc(C=CC(=O)O)cc3CCC21 (racemic) [Example 24, trans-dl-8-carboxyethenediyl-4-methyl-1,2,3,4,4a,5,6,10b-octahydrobenzo[f]quinolin-3-one]",4.96%
7,"CN1C(=O)CCC2c3ccc(C=CC(=O)NC(C)(C)C)cc3CCC21 (racemic) [Example 25, trans-dl-8-t-butylaminocarbonylethenediyl-4-methyl-1,2,3,4,4a,5,6,10b-octahydrobenzo[f]quinolin-3-one]",35.9%
8,"CC1(C)CC2NC(=O)CCC2c2ccc(Br)cc21 (racemic) [Example 27, trans-dl-8-bromo-6,6-dimethyl-1,2,3,4,4a,5,6,10b-octahydrobenzo[f]quinolin-3-one]",44.7%
9,"CC(C)(C)c1ccc2c(c1)CCC1NC(=O)CCC21 (racemic) [Example 30, trans-dl-8-t-butyl-1,2,3,4,4a,5,6,10b-octahydrobenzo[f]quinolin-3-one]",38.5%
10,"CN1C(=O)CCC2c3ccc(C(C)(C)C)cc3CCC21 (racemic) [Example 31, trans-dl-8-t-butyl-4-methyl-1,2,3,4,5,6,10b-octahydrobenzo[f]quinolin-3-one]",82.1%

# Same assay, conditions: Hs68, test compound 1.00 µM; Hs68 cells; substrate testosterone 12 µM; incubated four hours
row,Structure (SMILES),inhibition at 1 µM
1,"CN1C(=O)CC[C@@H]2c3ccc(Br)cc3CC[C@H]21 (racemic) [Example 1A, trans-dl-8-bromo-4-methyl-1,2,3,4,4a,5,6,10b-octahydrobenzo[f]quinolin-3-one]",98%
2,"CN1C(=O)CC[C@@H]2c3ccc(Br)cc3CC[C@@H]21 (racemic) [Example 1B, cis-dl-8-bromo-4-methyl-1,2,3,4,4a,5,6,10b-octahydrobenzo[f]quinolin-3-one]",92.7%
3,"CN1C(=O)CC[C@@H]2c3ccc(Cl)cc3CC[C@@H]21 (racemic) [Example 7, cis-dl-8-chloro-4-methyl-1,2,3,4,4a,5,6,10b-octahydrobenzo[f]quinolin-3-one]",100%

# Same assay, conditions: Hs68, test compound 1.00 µM; Hs68 cells; substrate testosterone 12 µM; incubated four hours; read-out: % Inhibition
row,Structure (SMILES),inhibition at 1 µM
1,"O=C1CC[C@@H]2c3ccc(Br)cc3CC[C@H]2N1 (racemic) [Example 2, trans-dl-8-bromo-1,2,3,4,4a,5,6,10b-octahydrobenzo[f]quinolin-3-one]",100%
2,"CN1C(=O)CC[C@@H]2c3cc(Cl)c(Cl)cc3CC[C@H]21 (racemic) [Example 5, trans-dl-8,9-dichloro-4-methyl-1,2,3,4,4a,5,6,10b-octahydrobenzo[f]quinolin-3-one]",100%
3,"Cc1ccc2c(c1)CC[C@@H]1[C@@H]2CCC(=O)N1C (racemic) [Example 8, trans-dl-4,8-dimethyl-1,2,3,4,4a,5,6,10b-octahydrobenzo[f]quinolin-3-one]",100%
4,"Cc1ccc2c(c1)CC[C@H]1[C@@H]2CCC(=O)N1C (racemic) [Example 9, cis-dl-4,8-dimethyl-1,2,3,4,4a,5,6,10b-octahydrobenzo[f]quinolin-3-one]",100%
5,"CN1C(=O)CC[C@@H]2c3ccc(F)cc3CC[C@H]21 (racemic) [Example 10, trans-dl-8-fluoro-4-methyl-1,2,3,4,4a,5,6,10b-octahydrobenzo[f]quinolin-3-one]",100%
6,"CN1C(=O)CC[C@@H]2c3ccc(F)cc3CC[C@@H]21 (racemic) [Example 11, cis-dl-8-fluoro-4-methyl-1,2,3,4,4a,5,6,10b-octahydrobenzo[f]quinolin-3-one]",59.2%
7,"O=C1CCC2c3ccc(Cl)cc3CCC2N1 (racemic) [Example 17, trans-dl-8-chloro-1,2,3,4,4a,5,6,10b-octahydrobenzo[f]quinolin-3-one]",100%
8,"COc1ccc2c(c1)CCC1NC(=O)CCC21 (racemic) [Example 18, trans-dl-8-methoxy-1,2,3,4,4a,5,6,10b-octahydrobenzo[f]quinolin-3-one]",69.8%
9,"COc1ccc2c(c1)CCC1C2CCC(=O)N1C (racemic) [Example 19, trans-dl-8-methoxy-4-methyl-1,2,3,4,4a,5,6,10b-octahydrobenzo[f]quinolin-3-one]",93.2%
10,"Cc1ccc2c(c1)CCC1NC(=O)CCC21 (racemic) [Example 20, trans-dl-8-methyl-1,2,3,4,4a,5,6,10b-octahydrobenzo[f]quinolin-3-one]",86.6%
11,"O=C1CCC2c3ccccc3CCC2N1 (racemic) [Example 21, trans-dl-1,2,3,4,4a,5,6,10b-octahydrobenzo[f]quinolin-3-one]",100%

# Same assay, conditions: Hs68, test compound 3.16 µM; Hs68 cells; substrate testosterone 12 µM; incubated four hours
row,Structure (SMILES),inhibition at 3.16 µM
1,"O=C1CCC2c3ccc(F)cc3CCC2N1 (racemic) [Example 15, trans-dl-8-fluoro-1,2,3,4,4a,5,6,10b-octahydrobenzo[f]quinolin-3-one]",100%

# Same assay, conditions: Hs68, test compound 15.00 µM; Hs68 cells; substrate testosterone 12 µM; incubated four hours
row,Structure (SMILES),inhibition at 15 µM
1,"O=C1CCC2c3ccccc3CCC2N1 (racemic) [Example 14, cis-dl-1,2,3,4,4a,5,6,10b-octa-hydrobenzo[f]quinolin-3-one]",31.7%

# Same assay, conditions: test compound 0.316 µM; Hs68 cells; substrate testosterone 12 µM; incubated four hours
row,Structure (SMILES),% Inhibition
1,"CC1CC2c3ccc(Cl)cc3CCC2N(C)C1=O (racemic) [Example 26A, trans-dl-8-chloro-2-(α-methyl)-4-methyl-1,2,3,4,4a,5,6,10b-octahydrobenzo[f]quinolin-3-one]",82.56%
2,"CC1CC2c3ccc(Cl)cc3CCC2N(C)C1=O (racemic) [Example 26B, trans-dl-8-chloro-2-(β-methyl)-4-methyl-1,2,3,4,4a,5,6,10b-octahydrobenzo[f]quinolin-3-one]",76.36%
